The test system of this assay is HCT116 colorectal cancer cells. The assay is described as follows: In vitro viability-based synergy assay (CellTiter Blue), dasatinib and C1368 alone and in combination.

SMILES strings stand for the structures. pIC50: −log10 of the molar value.

Method: HCT116 cells were plated at 3000 cells/well concentration into 96 well plates. […] Cells were incubated for an additional 72 hours and cellular viability measurements were performed using CellTiter Blue assay (Promega). IC50 values were calculated using XLFit and CI values were calculated using Calcusyn (Biosoft).

Consider `Cc1nc(Nc2ncc(C(=O)Nc3c(C)cccc3Cl)s2)cc(N2CCN(CCO)CC2)n1` [dasatinib], for which the pIC50 (commonly the IC50 on a negative log10 scale, so that one unit is a factor of ten) (Homo sapiens, HCT-116, 72 h, read-out: IC50 value, agent alone) is 6.22.

Consider `O=C(Nc1cccc(Nc2nccc(Nc3cccc(C(F)(F)F)c3)n2)c1)C1CC1` [C1368, Cyclopropanecarboxylic acid {3-[4-(3-trifluoromethyl-phenylamino)-pyrimidin-2-ylamino]-phenyl}-amide], for which the “IC50 value, agent alone” value (HCT116 cells, 72 hours treatment, single agent) is given as “undeterminable”.

Source of the values: US9101631B2, “Combination therapy based on SRC and aurora kinase inhibition for the treatment of cancer” (Georgetown University, priority 2008, dated 2015).
